Laboratory results taken from patent US20250381165A1, “Method of Use for Benzofuran Compounds” (Tampa Bay Research Institute, Inc., priority 2024, published 2025).
pIC50: −log10 of the molar value. “Also recorded” adds a separate entry of the source.

Experiments:
Assay type in all cases: cell-based, murine
H-2Kb on DC2.4 = target: T1, H-2Kb on DC2.4 (Mus musculus, UniProt P01901); test: FITC-labeled Trp2 peptide binding to DC2.4; settings: 50 μg/mL BzFβ 1 h, 1 h pulse 0-1000 nM peptide
T1 construct: DC2.4 are a C57Bl/6 lineage murine cell line and as such they express MHC class I H-2Kb and H-2Db; endogenous in cells; host or cells: DC2.4
T1 sequence (P01901 22-369): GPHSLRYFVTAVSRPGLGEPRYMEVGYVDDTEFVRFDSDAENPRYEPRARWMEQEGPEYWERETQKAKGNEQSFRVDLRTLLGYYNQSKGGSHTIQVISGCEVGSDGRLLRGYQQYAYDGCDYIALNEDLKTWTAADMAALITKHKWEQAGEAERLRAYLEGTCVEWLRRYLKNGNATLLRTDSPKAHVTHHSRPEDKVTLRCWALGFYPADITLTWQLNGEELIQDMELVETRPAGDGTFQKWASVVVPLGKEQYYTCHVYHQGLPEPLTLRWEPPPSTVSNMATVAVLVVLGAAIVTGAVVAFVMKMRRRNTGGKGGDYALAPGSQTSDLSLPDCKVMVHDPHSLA
T1 sequence (P01887 21-119 partner): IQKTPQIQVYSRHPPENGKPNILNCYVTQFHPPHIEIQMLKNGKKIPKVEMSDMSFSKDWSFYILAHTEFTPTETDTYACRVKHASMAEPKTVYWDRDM
Method: Cells were cultured as previously described and treated for various times as indicated in results and figure legends. Cells were centrifuged and washed using cold FACS buffer (DPBS with 5% FBS, 2 mM EDTA, 0.1% sodium azide). Cells were stained with N-terminal fluorophore-conjugated […] FITC labeled Trp2180-188 peptide ([…]) and N-terminal FITC labeled H-2Db peptide […] (Anaspec) cells were incubated with Fc block (bioLegend™; cat. no. 101320) for 10 min to 15 min to inhibit non-specific binding, followed by peptide for 1-4 h, before washing and analysis. After washing, the cells were subjected to flow cytometric analysis with the Attune NxT Flow Cytometer (Invitrogen™). Cells were gated based on live single-cell populations and positives were assessed using isotype controls and fluor-minus-one analysis when needed. Data were analyzed using the Attune NxT software or FlowJo versions 10.7 and 10.8.
While H-2Kb is the dominant haplotype, BzFβ was investigated to determine if the compound could assist peptide binding on H-2Kb and H-2Db. […]

[1] = tested on: E.G7-OVA cells (B3Z activation); test: B3Z activation by E.G7-OVA cells
Method: Activation of B3Z T cell hybridoma cells was assessed following their exposure to various MHC class I H-2K^b positive cell lines presenting the SIINFEKL peptide. To stimulate β-gal production in the B3Z, the H-2Kb murine cell lines, DC2.4 and E.G7-OVA were plated at a density of 2.5 or 5×10^4 cells/well (100 μL/well in 96 well plates) and cultured overnight at 37° C. in an atmosphere containing 5% CO2 and 95% humidity. The cells were washed with DPBS and then treated for 1-24 h with the indicated concentrations of BzFβ suspended in complete media. Vehicle controls were always included. Cells being examined for the uptake and processing of soluble OVA were co-treated with BzFβ and 0.5 mg/mL grade V chicken ovalbumin for 6-24 h, and then washed and cocultured with B3Z as indicated.
Following the pretreatment with BzFβ, the media was removed from adherent cells (DC2.4 or B16F10) or was removed following pelleting of nonadherent cells in the plate. The cells were then pulsed with various concentrations of SIINFEKL peptide (typically 0.5 nM was used) for the indicated lengths of time (typically 1 h). The cells were washed and then 100 μL of complete DMEM containing 5×10^4 B3Z cells was added. […] The absorbance at 560 nm (700 nm for background) was intermittently monitored using a BioTek Synergy HTX multimode microplate reader (Winooski, VT) to detect β-gal activity. […]

RAW 264.7 = test: CellTiter-Glo cell viability, RAW 264.7; settings: Mus musculus, RAW264.7
Method: BzFβ was then examined for its effect on the viability of several murine and human cell lines and primary murine splenocytes. The cytotoxicity of BzFβ was assessed using the CellTiter-Glo […] assay system according to manufacturer's instructions to determine BzFβ's effect on the viability of several murine and human cell lines and primary murine splenocytes.
DC2.4 cell line (Dr. Kenneth Rock, University of Massachusetts), RAW 264.7 cell line (American Type Culture Collection (ATCC), Manassas, VA; TIB 71), and IMG cell line (Millipore™, Merck KGaA, Burlington, MA; cat. no. SC-C134) were each cultured in complete Dulbecco's Modified Eagle Medium (cDMEM) containing […] glucose (Gibco™, Thermo Fisher Scientific Inc., Waltham, MA; cat. no. 10566-016) and supplemented with GlutaMAX, 50 U/mL penicillin and 50 µg/mL streptomycin (Gibco™; cat. no. 15070-063) and 10% heat inactivated fetal bovine serum (FBS) (R&D Systems, Inc., Minneapolis, MN; cat. no. […]
The cytotoxicity of BzFβ was assessed using the CellTiter-Glo cell […] viability assay system […] cat. no. […] CellTiter-Glo was added 1:1 in the media and the level of chemiluminescence was measured using luminescence at wavelengths of 200 nm to 700 nm through a photomultiplier on BioTek's Synergy HTX multimode microplate reader. […]

`O=C(O)/C=C/c1ccc2occc2c1` [BzFβ, (2E)-3-(1-benzofuran-5-yl)prop-2-enoic acid] was tested, and the “binding of FITC labeled Trp2 peptide to H-2Kb” value (H-2Kb on DC2.4) was “enhance peptide binding on both haplotypes; also recorded: enhancement of the direct binding”, the “ability of E.G7-OVA cells to activate B3Z” value ([1]; 0-100 μg/mL BzFβ) was “dose-dependently reduced” and the “lowest dose with significant effect” value ([1]; E.G7-OVA, B3Z assay) was 6.25 µg/mL. It also gave a pIC50 (RAW 264.7) of 3.11.
